In test [1] the target is T1, P2X7 (Homo sapiens, UniProt Q99572).
T1 sequence (Q99572 1-595): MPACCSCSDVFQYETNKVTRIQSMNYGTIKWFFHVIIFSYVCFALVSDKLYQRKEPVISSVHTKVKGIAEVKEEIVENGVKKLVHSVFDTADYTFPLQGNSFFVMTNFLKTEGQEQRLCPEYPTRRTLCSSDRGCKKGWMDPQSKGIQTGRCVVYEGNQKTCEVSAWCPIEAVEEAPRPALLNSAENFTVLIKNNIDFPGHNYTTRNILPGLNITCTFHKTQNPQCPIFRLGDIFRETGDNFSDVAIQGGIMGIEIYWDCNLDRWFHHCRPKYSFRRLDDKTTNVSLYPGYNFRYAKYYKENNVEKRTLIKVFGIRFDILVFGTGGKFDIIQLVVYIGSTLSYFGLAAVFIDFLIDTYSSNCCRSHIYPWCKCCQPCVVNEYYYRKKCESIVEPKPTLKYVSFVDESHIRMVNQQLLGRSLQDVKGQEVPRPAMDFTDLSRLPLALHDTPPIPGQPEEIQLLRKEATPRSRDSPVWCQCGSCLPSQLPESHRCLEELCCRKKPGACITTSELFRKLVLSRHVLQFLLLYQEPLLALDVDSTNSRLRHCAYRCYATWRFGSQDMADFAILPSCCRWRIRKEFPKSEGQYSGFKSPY
The test is described as follows: IL-1β release assay in THP-1 cells (sandwich ELISA). Format: cell-based. Further details: release of mature IL-1β in the culture medium of THP-1 cells; endogenous in cells; host or cells: THP-1 cells (PMA-differentiated, LPS-primed). The note with it: PMA, LPS primed, stimulated with 0.8 mM BzATP, mature IL-1β release, read-out: hTHP-1/IL-ib IC50. On the procedure:
The activation of P2X7 by ATP leads to a fast transient activation of cells resulting in influx of Ca^2+ followed by conversion of pro-IL-1β to active IL-1β. The functional activity of P2X7 compounds was measured by the release of mature IL-1β in the culture medium of THP-1 cells, detected by sandwich ELISA. Cells were maintained in complete growth medium (RPMI 1640+10% HI-FCS+2 mM L-glutamine+1×PS). […] THP-1 cells were harvested from the flask in 50 ml by centrifugation for 3 min at 100 g. The cells were resuspended to 2×10^5 cells/ml in medium supplemented with 0.5 μM PMA and incubated. The cells were washed and resuspended to 1.5×10^5 cells/ml in medium complemented with 10 ng/ml LPS, and the cells were primed for 4 h at 37° C., 5% CO2. After addition of 20 μL of prediluted test compounds, blank, standard and control reagents, cells were incubated for a further 20 min at 37° C. and stimulated with 0.8 mM BzATP for 30 minutes. The cells were centrifuged, supernatant was collected and the presence of mature IL-1β was detected using Dual human IL-1b kit following manufacturer's instruction. The tetrahydrobenzodiazepine analogs effectively modulated the activity of P2X7 in the cells as measured by the levels of pro-inflammatory cytokine IL-1β, which is released by the activation of P2X7 receptor.
Background: An ELISA detects its analyte on a solid surface through an enzyme-linked reagent.

In test [2] the target is T1, P2X7. The test is described as follows: Pore permeation assay (YO PRO dye uptake, BzATP-induced). Format: cell-based. Set-up: expressed in transfected cells; host or cells: HEK293. The note with it: HEK293 transfected with human P2X7 receptor; YO PRO dye 1 uM, BzATP 10 uM; read-out: hP2X7 IC50. The procedure:
Agonist-induced pore formation was determined by measuring cellular uptake of YO PRO fluorescence dye in HEK293 transfected with human P2X7 receptor. A HEK293 cell over expressing human P2X7 was harvested using HQTase reagent to detach the cells from T75 cm flask. The harvested cells are centrifuged @ 1200 rpm for 5 min at room temperature. The viability of cells was determined by Trypan blue dye and the cells are plated @ 10,000 cell/well in 50 ul volume in a 384 W BD Poly lysine coated plate and incubated overnight at 37 C. After overnight incubation, the culture medium was replaced with 35 ul/well assay buffer (5 mM KCl, 0.1 mM CaCl2, 5 mM Glucose, 10 mM HEPES buffer pH7.4 containing 125 mM NaCl. The serial dilution of compounds was performed using Bravo liquid handling instrument and the compounds were added using Bravo to the cell assay plate starting at 2.5 uM with three dilutions for 10 points. The positive control inhibitor compound was added to column 23. The plate was shaken slowly on a plate shaker for 10 seconds. The cells were incubated with the compound for 20 minutes at room temperature. After the incubation period, YO PRO dye (1 uM) along with BzATP (10 uM) were added to cells at 10 ul/well. The plate was centrifuged at 1000 rpm for 5 seconds and incubated at room temperature for 30 minutes. The uptake of YO PRO dye into the cells was measured using Envision Fluorescence plate reader instrument (Perkin Elmer).

On to `C[C@@H]1CCC[C@](O)(CNC(=O)c2c(Cl)ccc3nc(N4CC[C@H](F)C4)ccc23)C1` [Compound 9, 6-Chloro-2-(3-(S)-fluoropyrrolidin-1-yl)-quinoline-5-carboxylic acid ((1R,3R)-1-hydroxy-3-methyl-cyclohexylmethyl)-amide], for which the IC50 on P2X7 [1] was 10 to 100 nM; at P2X7 [2] it was less than 10 nM.

For `C[C@@H]1CCC[C@](O)(CNC(=O)c2c(Cl)ccc3nc(N4CCC(F)(F)C4)ccc23)C1` [Compound 10, 6-Chloro-2-(3,3-difluoropyrrolidin-1-yl)-quinoline-5-carboxylic acid ((1R,3R)-1-hydroxy-3-methyl-cyclohexylmethyl)-amide], the figures for the IC50 at P2X7 [1] and at P2X7 [2] were 10 to 100 nM and less than 10 nM, respectively.

Consider `O=C(NCC1CCC(F)(F)CC1)c1c(Cl)ccc2nc(N3CC[C@H](CCO)C3)ccc12` [Compound 11, 6-Chloro-2-((R)-3-hydroxyethyl-pyrrolidin-1-yl)-quinoline-5-carboxylic acid (4,4-difluoro-cyclohexylmethyl)-amide], for which the values for the IC50 at P2X7 [1] and on P2X7 [2] were 101 to 500 nM and less than 10 nM, respectively.

As for `O=C(NCC1CCC(F)(F)CC1)c1c(Cl)ccc2nc(N3CC[C@@H](CO)C3)ccc12` [Compound 12, 6-Chloro-2-((R)-3-hydroxymethyl-pyrrolidin-1-yl)-quinoline-5-carboxylic acid (4,4-difluoro-cyclohexylmethyl)-amide], the results for the IC50 on P2X7 [1] and at P2X7 [2] were 101 to 500 nM and less than 10 nM, respectively.

`C[C@@H]1CCC[C@](O)(CNC(=O)c2c(Cl)ccc3nc(N4CCC(N5CCCC5)C4)ccc23)C1` (stereo partly drawn) [Compound 13, 6-Chloro-2-(3-pyrrolidinyl-pyrrolidin-1-yl)-quinoline-5-carboxylic acid ((1R,3R)-1-hydroxy-3-methyl-cyclohexylmethyl)-amide]: the IC50 on P2X7 [1] and at P2X7 [2] was less than 10 nM throughout.

`CNC1CCN(c2ccc3c(C(=O)NCC4CCC(F)(F)CC4)c(Cl)ccc3n2)C1` (stereo not drawn) [Compound 17, 6-Chloro-2-(3-methylamino-pyrrolidin-1-yl)-quinoline-5-carboxylic acid (4,4-difluoro-cyclohexylmethyl)-amide]: the IC50 was 10 to 100 nM at P2X7 [1] and less than 10 nM at P2X7 [2].

With `NC1CCN(c2ccc3c(C(=O)NCC4CCC(F)(F)CC4)c(Cl)ccc3n2)C1` (stereo not drawn) [Compound 18], the values for the IC50 at P2X7 [1] and on P2X7 [2] were 10 to 100 nM and less than 10 nM, respectively.

Regarding `O=C(NCC1CCC(F)(F)CC1)c1c(Cl)ccc2nc(C#CCO)ccc12` [Compound 19, 6-Chloro-2-(3-hydroxy-prop-1-ynyl)-quinoline-5-carboxylic acid (4,4-difluoro-cyclo hexylmethyl)-amide], the IC50 on P2X7 [1] is 10 to 100 nM; on P2X7 [2], less than 10 nM.

As for `CN(C)[C@H]1CCN(c2ccc3c(C(=O)NCC4(O)CCC(F)(F)CC4)c(Cl)ccc3n2)C1` [Compound 20, 6-Chloro-2-((S)-3-dimethylamino-pyrrolidin-1-yl)-quinoline-5-carboxylic acid (4,4-difluoro-1-hydroxy-cyclohexylmethyl)-amide], the IC50 on P2X7 [1] and on P2X7 [2] was 10 to 100 nM throughout.

As to `O=C(NCC1CCC(F)(F)CC1)c1c(Cl)ccc2nc(N3CCC(NCCO)C3)ccc12` (stereo not drawn) [Compound 21], the IC50 on P2X7 [1] and on P2X7 [2] was 10 to 100 nM each time.

Consider `CN(C)[C@@H]1CCN(c2ccc3c(C(=O)NCC4(O)CCC(F)(F)CC4)c(Cl)ccc3n2)C1` [Compound 23, 6-Chloro-2-((R)-3-dimethylamino-pyrrolidin-1-yl)-quinoline-5-carboxylic acid (4,4-difluoro-1-hydroxy-cyclohexylmethyl)-amide], for which the IC50 at P2X7 [1] and at P2X7 [2] was 10 to 100 nM throughout.

As to `O=C(NC[C@@]1(O)CCCC(F)(F)C1)c1c(Cl)ccc2nc(N3CCC(F)(F)C3)ccc12` [Compound 24, 6-Chloro-2-(3,3-difluoropyrrolidin-1-yl)-quinoline-5-carboxylic acid ((R)-3,3-difluoro-1-hydroxycyclohexylmethyl)-amide], the IC50 at P2X7 [1] and on P2X7 [2] was 10 to 100 nM each time.

Take `O=C(NCC1(O)CCCCCC1)c1c(Cl)ccc2nc(N3CCCC3)ccc12` [Compound 25]: the IC50 on P2X7 [1] and on P2X7 [2] was 10 to 100 nM each time.

With `O=C(NCC1CCC(F)(F)CC1)c1c(Cl)ccc2nc(N3CC[C@@H](CCO)C3)ccc12` [Compound 26, 6-Chloro-2-((S)-3-hydroxyethyl-pyrrolidin-1-yl)-quinoline-5-carboxylic acid (4,4-difluoro-cyclohexylmethyl)-amide], the IC50 was 101 to 500 nM on P2X7 [1] and 10 to 100 nM at P2X7 [2].

As for `O=C(NCC1(O)CCC(F)(F)CC1)c1c(Cl)ccc2nc(N3CCC(N4CCCC4)C3)ccc12` (stereo not drawn) [Compound 27, 6-Chloro-2-(3-pyrrolidinyl-pyrrolidin-1-yl)-quinoline-5-carboxylic acid (4,4-difluoro-1-hydroxy-cyclohexylmethyl)-amide], the IC50 at P2X7 [1] and on P2X7 [2] was 10 to 100 nM throughout.

As for `CN(C)C1CCN(c2ccc3c(C(=O)NCC4(O)CCC(F)(F)CC4)c(Cl)ccc3n2)C1` (stereo not drawn) [Compound 28, 6-Chloro-2-(3-dimethylamino-pyrrolidin-1-yl)-quinoline-5-carboxylic acid (4,4-difluoro-1-hydroxy-cyclohexylmethyl)-amide], the IC50 at P2X7 [1] and on P2X7 [2] was 10 to 100 nM throughout.

Regarding `O=C(NCC1CCC(F)(F)CC1)c1c(Cl)ccc2nc(N3CC[C@H](CO)C3)ccc12` [Compound 29, 6-Chloro-2-((S)-3-hydroxymethyl-pyrrolidin-1-yl)-quinoline-5-carboxylic acid (4,4-difluoro-cyclohexylmethyl)-amide], the IC50 on P2X7 [1] and on P2X7 [2] was 10 to 100 nM in each case.

With `O=C(NCC1CCC(F)(F)CC1)c1c(Cl)ccc2nc(N3CCC(N4CCCC4)C3)ccc12` (stereo not drawn) [Compound 30, 6-Chloro-2-(3-pyrrolidinyl-pyrrolidin-1-yl)-quinoline-5-carboxylic acid (4,4-difluoro-cyclohexylmethyl)-amide], the IC50 on P2X7 [1] and on P2X7 [2] was 10 to 100 nM in each case.

For the molecule `O=C(NCC1CCC(F)(F)CC1)c1c(Cl)ccc2nc(C3=CCOCC3)ccc12` [Compound 31, 6-Chloro-2-(3,6-dihydro-2H-pyran-4-yl)-quinoline-5-carboxylic acid (4,4-difluoro-cyclo hexyl methyl)-amide], the results for the IC50 at P2X7 [1] and at P2X7 [2] were 101 to 500 nM and 10 to 100 nM, respectively.

Consider `NC1CCN(c2ccc3c(C(=O)NCC4(O)CCCC(F)(F)C4)c(Cl)ccc3n2)C1` (stereo not drawn) [Compound 32, 2-(3-Aminopyrrolidin-1-yl)-6-chloro-quinoline-5-carboxylic acid (3,3-difluoro-1-hydroxycyclohexylmethyl)-amide], for which the IC50 on P2X7 [1] and on P2X7 [2] was 10 to 100 nM in each case.

Consider `O=C(NCC1CCC(F)(F)CC1)c1c(Cl)ccc2nc(N3CC[C@@H](F)C3)ccc12` [Compound 33, 6-Chloro-2-((R)-3-fluoropyrrolidin-1-yl)-quinoline-5-carboxylic acid (4,4-difluoro-cyclohexylmethyl)-amide], for which the values for the IC50 on P2X7 [1] and at P2X7 [2] were 101 to 500 nM and 10 to 100 nM, respectively.
